Laboratory results reported in patent US7994185B2, “Benzene sulfonamide thiazole and oxazole compounds” (Glaxo Smith Kline LLC, priority 2008, dated 2011).
Like-named read-outs stand apart in the source and are kept apart here.

Experiments:
[1] = test system: Human melanoma cancer cells (SK-MEL-28); test: Cell growth inhibition assay (CellTiter-Glo), SK-MEL-28; format: cell-based
[2] = molecular target: T1, BRAFV600E full-length (amino acids 2-766) (Homo sapiens, UniProt P15056, V600E); test: B-Raf Accelerated MEK ATPase assay (BRAMA); format: biochemical
T1 construct: His6-tagged BRAFV600E full-length (amino acids 2-766); His6; made in house; host or cells: baculovirus expression system (insect cells)
Method in brief: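 Coupled-enzyme readout: ADP generated by MEK-mediated ATP hydrolysis, uncoupled from ERK phosphorylation, is linked to NADH oxidation through pyruvate kinase and lactate dehydrogenase.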

[3] = test system: Human colon tumor cells (Colo205); test: Cell growth inhibition assay (CellTiter-Glo), Colo205; format: cell-based
Method in brief: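 Growth is estimated from total cellular ATP measured by CellTiter-Glo luminescence after a 3-day compound exposure at 37 °C. Compounds are tested as 1:3 dilution series in 0.2% final DMSO, with inhibition expressed relative to vehicle-treated wells.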

[4] = SK-MEL-28, 72 h, Table 3a, 3 days incubation, read-out: Activity in SK-MEL-28 Tumor Cells
[5] = SK-MEL-28, Table 3b, later runs, average for the one or more runs, categorized, read-out: IC50 for SK-MEL-28
[6] = B-Raf Activity, Table 1a, highest pIC50 for the one or more runs, categorized
[7] = B-Raf pIC50, Table 1b, later runs, average pIC50 for the one or more runs, categorized
[8] = COLO 205, 72 h, Table 2a, 3 days incubation, read-out: Activity in Colo205 Tumor Cells
[9] = COLO 205, Table 2b, later runs, average for the one or more runs, categorized, read-out: IC50 for Colo205
[10] = Table 1b, later runs, average pIC50 for the one or more runs, categorized, read-out: B-Raf pIC50 (converted)

T1 sequence (P15056 2-766 V600E): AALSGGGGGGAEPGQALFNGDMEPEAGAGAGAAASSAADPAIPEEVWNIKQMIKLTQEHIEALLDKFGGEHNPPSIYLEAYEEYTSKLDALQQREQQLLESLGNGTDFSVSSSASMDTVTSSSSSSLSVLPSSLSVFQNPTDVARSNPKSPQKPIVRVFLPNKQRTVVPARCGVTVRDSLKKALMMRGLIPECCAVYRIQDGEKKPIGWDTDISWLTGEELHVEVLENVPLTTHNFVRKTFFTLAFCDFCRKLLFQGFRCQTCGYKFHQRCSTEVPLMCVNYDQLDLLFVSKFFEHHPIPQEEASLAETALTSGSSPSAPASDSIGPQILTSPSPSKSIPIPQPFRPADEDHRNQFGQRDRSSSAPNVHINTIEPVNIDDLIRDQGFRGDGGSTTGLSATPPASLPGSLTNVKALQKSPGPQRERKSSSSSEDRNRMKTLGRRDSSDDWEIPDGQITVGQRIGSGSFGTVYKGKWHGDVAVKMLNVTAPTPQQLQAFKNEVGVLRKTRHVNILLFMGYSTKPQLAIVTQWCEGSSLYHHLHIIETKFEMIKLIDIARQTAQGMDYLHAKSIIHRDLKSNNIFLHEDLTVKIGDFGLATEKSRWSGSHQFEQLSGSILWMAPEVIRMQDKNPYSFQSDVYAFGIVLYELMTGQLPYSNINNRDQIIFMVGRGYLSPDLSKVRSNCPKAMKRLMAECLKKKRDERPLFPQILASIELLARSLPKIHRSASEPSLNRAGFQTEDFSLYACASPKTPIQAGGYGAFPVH

Structure (SMILES)	IC50 [1, 4]	IC50 [1, 5]	IC50 [2, 6]	IC50 [2, 7]	IC50 [3, 8]	IC50 [3, 9]	IC50 [2, 10]	IC50 [2]
CC(C)CNc1nccc(-c2sc(C(C)C)nc2-c2cccc(NS(=O)(=O)c3cccnc3)c2F)n1 [Example 42, N-[2-Fluoro-3-(2-(1-methylethyl)-5-{2-[(2-methylpropyl)amino]-4-pyrimidinyl}-1,3-thiazol-4-yl)phenyl]-3-pyridinesulfonamide]	< 100 nM	< 100 nM	< 100 nM	≤ 3.16 nM	< 100 nM	< 100 nM	–	–
CC(C)CNc1nccc(-c2sc(N3CCOCC3)nc2-c2cccc(NS(=O)(=O)c3ccco3)c2F)n1 [Example 43, N-{2-fluoro-3-[5-{2-[(2-methylpropyl)amino]-4-pyrimidinyl}-2-(4-morpholinyl)-1,3-thiazol-4-yl]phenyl}-2-furansulfonamide]	100 to 1000 nM	100 to 1000 nM	< 100 nM	≤ 3.16 nM	100 to 1000 nM	100 to 1000 nM	–	–
COc1c(NS(=O)(=O)c2c(F)cccc2F)cccc1-c1nc(C(C)C)sc1-c1ccnc(NCC(C)C)n1 [Example 44, 2,6-Difluoro-N-[3-(2-(1-methylethyl)-5-{2-[(2-methylpropyl)amino]-4-pyrimidinyl}-1,3-thiazol-4-yl)-2-(methyloxy)phenyl]benzenesulfonamide]	> 1000 nM	1000 to 10000 nM	< 100 nM	–	> 1000 nM	1000 to 10000 nM	3.16 to 31.6 nM	–
CC(C)CNc1nccc(-c2sc(N3CCOCC3)nc2-c2cccc(NS(=O)(=O)c3cccnc3)c2F)n1 [Example 45, N-{2-Fluoro-3-[5-{2-[(2-methylpropyl)amino]-4-pyrimidinyl}-2-(4-morpholinyl)-1,3-thiazol-4-yl]phenyl}-3-pyridinesulfonamide]	100 to 1000 nM	100 to 1000 nM	< 100 nM	≤ 3.16 nM	100 to 1000 nM	100 to 1000 nM	–	–
CC(C)CNc1nccc(-c2sc(C(C)(C)C)nc2-c2ccc(F)c(NS(=O)(=O)c3c(F)cccc3F)c2)n1 [Example 46, N-[5-(2-(1,1-Dimethylethyl)-5-{2-[(2-methylpropyl)amino]-4-pyrimidinyl}-1,3-thiazol-4-yl)-2-fluorophenyl]-2,6-difluorobenzenesulfonamide]	100 to 1000 nM	100 to 1000 nM	< 100 nM	–	100 to 1000 nM	100 to 1000 nM	3.16 to 31.6 nM	–
COc1c(NS(=O)(=O)c2c(F)cccc2F)cccc1-c1nc(N2CCOCC2)sc1-c1ccnc(NCC(C)C)n1 [Example 47, 2,6-Difluoro-N-{2-(methyloxy)-3-[5-{2-[(2-methylpropyl)amino]-4-pyrimidinyl}-2-(4-morpholinyl)-1,3-thiazol-4-yl]phenyl}benzenesulfonamide]	100 to 1000 nM	100 to 1000 nM	< 100 nM	–	100 to 1000 nM	100 to 1000 nM	3.16 to 31.6 nM	–
Nc1nccc(-c2sc(N3CCOCC3)nc2-c2cccc(NS(=O)(=O)C3CCCCC3)c2F)n1 [Example 48, N-{3-[5-(2-Amino-4-pyrimidinyl)-2-(4-morpholinyl)-1,3-thiazol-4-yl]-2-fluorophenyl}cyclohexanesulfonamide]	100 to 1000 nM	100 to 1000 nM	100 to 1000 nM	31.6 to 1000 nM	100 to 1000 nM	100 to 1000 nM	–	–
Nc1nccc(-c2sc(N3CCOCC3)nc2-c2cccc(NS(=O)(=O)N3CCCCC3)c2F)n1 [Example 49, N-{3-[5-(2-Amino-4-pyrimidinyl)-2-(4-morpholinyl)-1,3-thiazol-4-yl]-2-fluorophenyl}-1-piperidinesulfonamide]	100 to 1000 nM	100 to 1000 nM	100 to 1000 nM	31.6 to 1000 nM	100 to 1000 nM	100 to 1000 nM	–	–
Nc1nccc(-c2sc(N3CCOCC3)nc2-c2cccc(NS(=O)(=O)N3CCOCC3)c2F)n1 [Example 50, N-{3-[5-(2-Amino-4-pyrimidinyl)-2-(4-morpholinyl)-1,3-thiazol-4-yl]-2-fluorophenyl}-4-morpholinesulfonamide]	> 1000 nM	1000 to 10000 nM	100 to 1000 nM	31.6 to 1000 nM	> 1000 nM	1000 to 10000 nM	–	–
Nc1nccc(-c2sc(N3CCOCC3)nc2-c2cccc(NS(=O)(=O)C3CC3)c2F)n1 [Example 51, N-{3-[5-(2-Amino-4-pyrimidinyl)-2-(4-morpholinyl)-1,3-thiazol-4-yl]-2-fluorophenyl}cyclopropanesulfonamide]	> 1000 nM	1000 to 10000 nM	–	–	> 1000 nM	1000 to 10000 nM	–	> 1000 nM
CC(C)c1nc(-c2cccc(NS(=O)(=O)C3CC3)c2)c(-c2ccnc(NCCS(C)(=O)=O)n2)s1 [Example 52, N-{3-[2-(1-Methylethyl)-5-(2-{[2-(methylsulfonyl)ethyl]amino}-4-pyrimidinyl)-1,3-thiazol-4-yl]phenyl}cyclopropanesulfonamide]	100 to 1000 nM	100 to 1000 nM	100 to 1000 nM	31.6 to 1000 nM	100 to 1000 nM	100 to 1000 nM	–	–
Cc1ccc(F)cc1S(=O)(=O)Nc1cccc(-c2nc(C(C)(C)C)sc2-c2ccnc(N)n2)c1F [Example 53, N-{3-[5-(2-Amino-4-pyrimidinyl)-2-(1,1-dimethylethyl)-1,3-thiazol-4-yl]-2-fluorophenyl}-5-fluoro-2-methylbenzenesulfonamide]	< 100 nM	< 100 nM	< 100 nM	–	< 100 nM	< 100 nM	3.16 to 31.6 nM	–
CC(C)(C)c1nc(-c2cccc(NS(=O)(=O)c3ccccc3F)c2F)c(-c2ccnc(N)n2)s1 [Example 54, N-{3-[5-(2-Amino-4-pyrimidinyl)-2-(1,1-dimethylethyl)-1,3-thiazol-4-yl]-2-fluorophenyl}-2-fluorobenzenesulfonamide]	< 100 nM	< 100 nM	< 100 nM	≤ 3.16 nM	< 100 nM	< 100 nM	–	–
CC(C)c1nc(-c2ccc(F)c(NS(=O)(=O)C3CC3)c2)c(-c2ccnc(NCCS(C)(=O)=O)n2)s1 [Example 55, N-{2-fluoro-5-[2-(1-methylethyl)-5-(2-{[2-(methylsulfonyl)ethyl]amino}-4-pyrimidinyl)-1,3-thiazol-4-yl]phenyl}cyclopropanesulfonamide]	> 1000 nM	1000 to 10000 nM	100 to 1000 nM	31.6 to 1000 nM	100 to 1000 nM	100 to 1000 nM	–	–
Nc1nccc(-c2sc(N3CCOCC3)nc2-c2cccc(NS(=O)(=O)c3cc(F)ccc3F)c2F)n1 [Example 56, N-{3-[5-(2-Amino-4-pyrimidinyl)-2-(4-morpholinyl)-1,3-thiazol-4-yl]-2-fluorophenyl}-2,5-difluorobenzenesulfonamide]	< 100 nM	< 100 nM	< 100 nM	≤ 3.16 nM	< 100 nM	< 100 nM	–	–
CC(C)c1nc(-c2cccc(NS(=O)(=O)c3c(F)cccc3F)c2F)c(-c2ccnc(N)n2)s1 [Example 60, N-{3-[5-(2-Amino-4-pyrimidinyl)-2-(1-methylethyl)-1,3-thiazol-4-yl]-2-fluorophenyl}-2,6-difluorobenzenesulfonamide]	< 100 nM	< 100 nM	< 100 nM	≤ 3.16 nM	< 100 nM	< 100 nM	–	–
Nc1nccc(-c2sc(N3CCOCC3)nc2-c2cccc(NS(=O)(=O)c3cccnc3)c2F)n1 [Example 61, N-{3-[5-(2-Amino-4-pyrimidinyl)-2-(4-morpholinyl)-1,3-thiazol-4-yl]-2-fluorophenyl}-3-pyridinesulfonamide]	100 to 1000 nM	100 to 1000 nM	< 100 nM	≤ 3.16 nM	100 to 1000 nM	100 to 1000 nM	–	–
Nc1nccc(-c2sc(N3CCOCC3)nc2-c2cccc(NS(=O)(=O)c3ccco3)c2F)n1 [Example 62, N-{3-[5-(2-Amino-4-pyrimidinyl)-2-(4-morpholinyl)-1,3-thiazol-4-yl]-2-fluorophenyl}-2-furansulfonamide]	100 to 1000 nM	100 to 1000 nM	< 100 nM	≤ 3.16 nM	100 to 1000 nM	100 to 1000 nM	–	–
CC(C)(C)c1nc(-c2cccc(NS(=O)(=O)C3CCCCC3)c2F)c(-c2ccnc(N)n2)s1 [Example 63, N-{3-[5-(2-Amino-4-pyrimidinyl)-2-(1,1-dimethylethyl)-1,3-thiazol-4-yl]-2-fluorophenyl}cyclohexanesulfonamide]	100 to 1000 nM	100 to 1000 nM	100 to 1000 nM	31.6 to 1000 nM	100 to 1000 nM	100 to 1000 nM	–	–
CC(C)CNc1nccc(-c2sc(C3CCOCC3)nc2-c2cccc(NS(=O)(=O)c3cc(F)ccc3F)c2F)n1 [Example 67, 2,5-Difluoro-N-{2-fluoro-3-[5-{2-[(2-methylpropyl)amino]-4-pyrimidinyl}-2-(tetrahydro-2H-pyran-4-yl)-1,3-thiazol-4-yl]phenyl}benzenesulfonamide]	< 100 nM	< 100 nM	< 100 nM	≤ 3.16 nM	< 100 nM	< 100 nM	–	–
